Experiments:
[1] = biological target: T1, CbPrpB (Coxiella burnetii, UniProt Q83DG5); assay: biochemical
T1 construct: gene prpB

[2] = biological target: T1, CbPrpB

T1 sequence (Q83DG5 1-290): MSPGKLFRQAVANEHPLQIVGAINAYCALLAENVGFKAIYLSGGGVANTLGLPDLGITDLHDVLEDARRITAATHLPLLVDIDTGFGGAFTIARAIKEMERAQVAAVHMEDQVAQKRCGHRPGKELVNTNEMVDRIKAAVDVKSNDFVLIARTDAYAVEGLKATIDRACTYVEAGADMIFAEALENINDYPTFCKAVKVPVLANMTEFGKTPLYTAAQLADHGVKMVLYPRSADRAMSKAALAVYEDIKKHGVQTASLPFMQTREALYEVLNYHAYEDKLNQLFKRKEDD

Q: How did the Ki [1] turn out when `O=C(O)C[C@H](C(=O)O)[C@@H](O)C(=O)O` [isocitrate] was run?
A: 6 ± 2 mM

Q: `CC(=O)C(=O)O` [pyruvate] was tested. Which “X-ray crystal structure, soak” value [2] did it give?
A: We first determined the structure of product-bound CbPrpB

Q: Which “X-ray crystal structure, soak” value [2] does the source give for `O=C(O)CCC(=O)O` [succinate] here?
A: We first determined the structure of product-bound CbPrpB

Reference: publication doi:10.1101/2025.01.06.631558v1 (biorxiv, 2025)
